Our source for the IC50 and EC50 values is patent US20240228469A1, “PCSK9 INHIBITORS AND METHODS OF USE THEREOF” (AstraZeneca AB, priority 2022, published 2024).

In assay [1] the target is T1, potassium ion channel hERG (Homo sapiens, UniProt Q12809).
T1 construct: expressed in transfected cells; host or cells: Chinese hamster ovary K1 (CHO)
Put plainly: Assay 5 hERG assay (patch clamp, CHO cells over-expressing hERG). In kind it is cell-based. As to conditions: SyncroPatch 384PE, room temperature, geometric mean, read-out: Assay 5 (hERG Hu CHO if EPh CR-Syncro) GMean IC50. The method, boiled down: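 hERG currents recorded by automated patch clamp at room temperature in CHO-K1 cells, 6-point cumulative concentrations. SyncroPatch runs used KF-based internal (pH 7.2) and NMDG-containing external solution (pH 7.4), 0.33% DMSO; QPatchII runs used 2% or 0.4% DMSO. Only wells meeting seal-resistance and current-size criteria kept.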

The target in assay [2] is GSK3β (Glycogen synthase kinase-3 beta) (Homo sapiens, UniProt P49841). Put plainly: Assay 6 GSK3β assay (ThermoFisher Z-Lyte FRET). In kind it is biochemical. As to conditions: ATP Conc: 10 μM, geometric mean; read-out: Assay 6 (GSK3β FRET-Z-Lyte Cr) GMean IC50. The method, boiled down: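 Z-Lyte FRET: 0.22-0.92 ng kinase with 2 μM Ser/Thr 09 peptide in HEPES pH 7.5, MgCl2, EGTA, 60 min at room temperature, then 60 min development. Compounds in 1% DMSO, 10-point 3-fold series from 10 μM; sigmoidal dose-response fit.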
Sequence of GSK3β (Glycogen synthase kinase-3 beta) (P49841 whole entry): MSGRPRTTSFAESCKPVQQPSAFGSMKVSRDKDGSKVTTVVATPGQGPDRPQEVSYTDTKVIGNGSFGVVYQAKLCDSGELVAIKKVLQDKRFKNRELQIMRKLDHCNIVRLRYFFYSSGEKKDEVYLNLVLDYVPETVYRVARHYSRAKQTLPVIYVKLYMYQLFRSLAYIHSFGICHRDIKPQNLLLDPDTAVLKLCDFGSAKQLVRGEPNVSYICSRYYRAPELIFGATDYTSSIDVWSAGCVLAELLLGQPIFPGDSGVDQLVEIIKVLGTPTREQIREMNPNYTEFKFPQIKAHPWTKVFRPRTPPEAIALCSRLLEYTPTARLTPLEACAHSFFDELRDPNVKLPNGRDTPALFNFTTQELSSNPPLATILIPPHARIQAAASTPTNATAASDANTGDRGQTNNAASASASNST

The target in assay [3] is T2, PCSK9 (Homo sapiens, UniProt Q8NBP7, G670E/V474I). The experiment in a line: biochemical.
T2 sequence (Q8NBP7 with tags, fused parts or gaps V474I/G670E): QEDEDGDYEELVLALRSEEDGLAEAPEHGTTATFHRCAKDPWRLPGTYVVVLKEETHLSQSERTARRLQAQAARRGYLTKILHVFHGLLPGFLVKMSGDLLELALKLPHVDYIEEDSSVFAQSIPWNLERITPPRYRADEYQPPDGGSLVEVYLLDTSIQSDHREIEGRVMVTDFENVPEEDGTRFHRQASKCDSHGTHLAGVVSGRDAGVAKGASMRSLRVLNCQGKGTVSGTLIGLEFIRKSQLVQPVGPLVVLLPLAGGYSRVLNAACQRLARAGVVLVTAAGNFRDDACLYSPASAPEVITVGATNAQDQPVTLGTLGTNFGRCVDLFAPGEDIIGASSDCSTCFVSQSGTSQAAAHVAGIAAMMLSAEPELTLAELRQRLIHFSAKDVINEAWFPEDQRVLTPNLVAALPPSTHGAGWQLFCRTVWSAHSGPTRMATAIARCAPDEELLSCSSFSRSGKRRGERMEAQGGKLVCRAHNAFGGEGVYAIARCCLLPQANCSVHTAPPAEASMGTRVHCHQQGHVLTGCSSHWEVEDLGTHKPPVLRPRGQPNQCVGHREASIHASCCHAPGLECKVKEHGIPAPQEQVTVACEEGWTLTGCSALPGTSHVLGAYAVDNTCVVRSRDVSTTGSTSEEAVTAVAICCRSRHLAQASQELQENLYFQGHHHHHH
Assay [4] has as its target T2, PCSK9. The experiment in a line: Assay 3 PCSK9 LDL-C uptake assay in HepG2 cells. In kind it is cell-based. The note with it: 125 nM PCSK9, pHrodo Red-LDL, read-out: Assay 3 LDL uptake potency. On the set-up: TEV site (C); His6 (C); host or cells: added to HepG2 (ATCC #HB-8065). An excerpt:
This assay measures for PCSK9 antagonist activity based on a test compound's capacity to restore LDL-C-uptake in HepG2 cells. The assay is based on exogenous PCSK9 and LDL-C complexed with a pH-sensitive dye. Outside the cells, at neutral pH, the pHrodo Red-LDL is dimly fluorescent but upon LDLR mediated endocytosis it fluoresces brightly. PCSK9 traffics the LDLR to intracellular degradation and reduces uptake of LDL-C. Inhibition of PCSK9 reduces LDLR degradation and the increased LDL-C uptake is quantified by fluorescence microscopy.
• Cell medium: MEM supplemented with 10% FBS, 1×NEAA and Sodium Pyruvate • Assay medium: OptiMem supplemented with penicillin/streptomycin • Cells: HepG2 (ATCC #HB-8065)
• 1. Cryopreserved HepG2 cells were thawed in assay medium and centrifuged for 5 min at 250 g. Supernatant was discarded and the cell pellet resuspended in cell medium and counted with a Nucleocounter. Cells were again centrifuged 5 min at 250 g and the pellet was resuspended to 500000 cells/mL in assay medium. • 2. 20 μL of above cell mix was dispensed into black μclear TC treated 384 well plates with Multidrop Combi and left at room temperature for 20 minutes. • 3. Plates were incubated at 37° C., 5% CO2 for 24 h
• 1. Test compounds were prepared in concentration response in DMSO with a half-log dilution factor in DMSO in Echo 384 LDV plates starting at 10 mM. • 2. 30 nL of above test compounds were dispensed with Echo 655 to cells for a top concentration of 10 μM • 3. 10 μL PCSK9 in assay medium was dispensed to cells with Multidrop Combi for 125 nM final concentration in the wells. • 4. Plates were incubated at 37° C., 5% CO2 for 24 h
• 1. 10 μL pHrodo Red-LDL in assay medium was dispensed to cells with Multidrop Combi for […] • 2. Plates were incubated at 37° C., 5% CO2 and imaged with the Incucyte S3 after 4 h and 24 h
Image data was processed using Incucyte 2021, a software to identify cells and red fluorescent intensity. Screener was used to further process data. Data was normalized as % effect of the signal between median values of the on-plate controls of DMSO and 100 nM Evolocumab according to the formula % effect=−100*(x−DMSO)/(Evolocumab−DMSO) where x equals the measured signal. Concentration response data of the normalized values were fitted using a four-parameter logistic fit.

T1 sequence (Q12809 whole entry): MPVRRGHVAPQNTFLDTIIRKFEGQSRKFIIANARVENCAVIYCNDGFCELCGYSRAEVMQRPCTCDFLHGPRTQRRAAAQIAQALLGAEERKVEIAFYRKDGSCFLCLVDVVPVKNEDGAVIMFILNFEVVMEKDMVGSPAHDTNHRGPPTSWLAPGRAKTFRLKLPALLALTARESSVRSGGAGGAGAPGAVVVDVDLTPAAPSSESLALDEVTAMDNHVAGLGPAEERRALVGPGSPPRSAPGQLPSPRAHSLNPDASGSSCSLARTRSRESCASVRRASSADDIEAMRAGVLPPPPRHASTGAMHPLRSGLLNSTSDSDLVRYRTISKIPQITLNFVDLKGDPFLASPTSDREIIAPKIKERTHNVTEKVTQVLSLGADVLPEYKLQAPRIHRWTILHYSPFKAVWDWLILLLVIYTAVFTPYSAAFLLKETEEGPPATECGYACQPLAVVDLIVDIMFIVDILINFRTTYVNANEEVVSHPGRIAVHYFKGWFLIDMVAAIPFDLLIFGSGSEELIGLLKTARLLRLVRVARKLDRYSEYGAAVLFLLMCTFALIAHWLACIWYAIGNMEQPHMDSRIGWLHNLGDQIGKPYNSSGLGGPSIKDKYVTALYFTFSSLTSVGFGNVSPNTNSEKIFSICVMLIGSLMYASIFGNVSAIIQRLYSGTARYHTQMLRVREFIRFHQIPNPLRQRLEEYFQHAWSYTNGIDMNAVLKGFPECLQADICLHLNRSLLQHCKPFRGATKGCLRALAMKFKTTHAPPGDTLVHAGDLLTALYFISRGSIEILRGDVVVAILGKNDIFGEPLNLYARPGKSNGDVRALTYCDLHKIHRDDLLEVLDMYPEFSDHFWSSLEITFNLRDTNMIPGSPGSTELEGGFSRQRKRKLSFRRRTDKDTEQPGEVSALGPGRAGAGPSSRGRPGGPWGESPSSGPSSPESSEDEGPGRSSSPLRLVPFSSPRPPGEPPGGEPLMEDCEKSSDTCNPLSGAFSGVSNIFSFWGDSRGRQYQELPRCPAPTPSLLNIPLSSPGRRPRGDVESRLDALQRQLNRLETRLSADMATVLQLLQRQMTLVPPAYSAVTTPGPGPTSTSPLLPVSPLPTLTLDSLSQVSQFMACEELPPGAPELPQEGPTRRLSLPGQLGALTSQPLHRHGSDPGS

`Cc1cnc(N[C@H]2CC[C@H](Nc3ccc(-n4cc(OC(F)F)ccc4=O)cn3)C2)nn1` [Example 185, 5-(Difluoromethoxy)-6′-(((1S,3S)-3-((6-methyl-1,2,4-triazin-3-yl)amino)cyclopentyl)amino)-2H-[1,3′-bipyridin]-2-one]: the IC50 in assay [1] was more than 40100 nM; in assay [2], 2420 nM; against PCSK9 [3], 13 nM. The EC50 on PCSK9 [4] was determined as 200 nM.

On to `N#Cc1cccn(-c2ccc(N[C@H]3CC[C@H](Nc4ncc(C(=O)NC5COC5)nn4)C3)nc2)c1=O` [Example 159, 3-(((1S,3S)-3-((3-Cyano-2-oxo-2H-[1,3′-bipyridin]-6′-yl)amino)cyclopentyl)amino)-N-(oxetan-3-yl)-1,2,4-triazine-6-carboxamide], for which the IC50 in assay [1] was more than 40100 nM; in assay [2], more than 10000 nM; against PCSK9 [3], 4.1 nM. In addition, the EC50 on PCSK9 [4] amounted to 100 nM.

For the compound `COc1ccn(-c2ccc(N[C@H]3CC[C@H](Nc4ncc(C)nn4)C3)nc2)c(=O)c1` [Example 180, 4-Methoxy-6′-(((1S,3S)-3-((6-methyl-1,2,4-triazin-3-yl)amino)cyclopentyl)amino)-2H-[1,3′-bipyridin]-2-one], the results for the IC50 (in assay [1]; in assay [2]; against PCSK9 [3]) were more than 40100 nM, more than 10000 nM and 6 nM, respectively. At PCSK9 [4], the EC50 amounted to 300 nM.

With `Cc1cnc(N[C@H]2CC[C@H](Nc3ccc(-n4cccc(F)c4=O)cn3)C2)nn1` [Example 137, 3-Fluoro-6′-(((1S,3S)-3-((6-methyl-1,2,4-triazin-3-yl)amino)cyclopentyl)amino)-2H-[1,3′-bipyridin]-2-one], the values for the IC50 (in assay [1]; in assay [2]; at PCSK9 [3]) were more than 40100 nM, 3520 nM and 10 nM, respectively. Besides, the EC50 at PCSK9 [4] amounted to 700 nM.

Turning to `Cc1cnc(N[C@H]2CC[C@H](Nc3ccc(-n4c(=O)n(C)c5cc(C#N)cnc54)cn3)C2)nn1` [Example 214, 1-Methyl-3-(6-(((1S,3S)-3-((6-methyl-1,2,4-triazin-3-yl)amino)cyclopentyl)amino)pyridin-3-yl)-2-oxo-2,3-dihydro-1H-imidazo[4,5-b]pyridine-6-carbonitrile], the IC50 is more than 40100 nM in assay [1], more than 10000 nM in assay [2] and 3.4 nM on PCSK9 [3]. For the same compound, the EC50 on PCSK9 [4] was 700 nM.

In the case of `O=C(NC1COC1)c1cnc(N[C@H]2CC[C@H](Nc3ccc(-n4cccc(C(F)(F)F)c4=O)cn3)C2)nn1` [Example 161, N-(Oxetan-3-yl)-3-(((1S,3S)-3-((2-oxo-3-(trifluoromethyl)-2H-[1,3′-bipyridin]-6′-yl)amino)cyclopentyl)amino)-1,2,4-triazine-6-carboxamide], the IC50 in assay [1] is more than 40100 nM; in assay [2], more than 10000 nM; against PCSK9 [3] it was 3.8 nM. In addition, the EC50 on PCSK9 [4] is 100 nM.

`COc1ccc(=O)n(-c2ccc(N[C@H]3CC[C@H](Nc4ncc(C(=O)NC5COC5)nn4)C3)nc2)c1` [Example 154, 3-(((1S,3S)-3-((5-Methoxy-2-oxo-2H-[1,3′-bipyridin]-6′-yl)amino)cyclopentyl)amino)-N-(oxetan-3-yl)-1,2,4-triazine-6-carboxamide]: the half-inhibitory concentration (IC50) in assay [1] was more than 40100 nM; in assay [2], 3900 nM; on PCSK9 [3], 14 nM. Further, the EC50 on PCSK9 [4] came to 200 nM.

Consider `O=C(NC1COC1)c1cnc(N[C@H]2CC[C@H](Nc3ccc(-n4cccc(OC(F)(F)F)c4=O)cn3)C2)nn1` [Example 160, N-(Oxetan-3-yl)-3-(((1S,3S)-3-((2-oxo-3-(trifluoromethoxy)-2H-[1,3′-bipyridin]-6′-yl)amino)cyclopentyl)amino)-1,2,4-triazine-6-carboxamide], for which the IC50 in assay [1] is more than 40100 nM; in assay [2], more than 10000 nM; against PCSK9 [3], 6.9 nM. The EC50 on PCSK9 [4] was found to be 200 nM.

`O=c1ccc(-c2cn[nH]c2)cn1-c1ccc(N[C@H]2CC[C@H](Nc3ncc(C4CC4)nn3)C2)nc1` [Example 123, 6′-(((1S,3S)-3-((6-Cyclopropyl-1,2,4-triazin-3-yl)amino)cyclopentyl)amino)-5-(1H-pyrazol-4-yl)-2H-[1,3′-bipyridin]-2-one]: the IC50 in assay [1] is more than 40100 nM; in assay [2], 8840 nM; on PCSK9 [3], 1.4 nM. Moreover, at PCSK9 [4], the EC50 was determined as 100 nM.

Turning to `O=c1ccc(OC(F)F)cn1-c1ccc(N[C@H]2CC[C@H](Nc3ncc(C4CC4)nn3)C2)nc1` [Example 166, 6′-(((1S,3S)-3-((6-Cyclopropyl-1,2,4-triazin-3-yl)amino)cyclopentyl)amino)-5-(difluoromethoxy)-2H-[1,3′-bipyridin]-2-one], the half-inhibitory concentration (IC50) in assay [1] turned out to be 38200 nM; in assay [2], 2200 nM; against PCSK9 [3], 7.2 nM. Besides, on PCSK9 [4], the EC50 worked out at 300 nM.

Turning to `Cc1cnc(N[C@H]2CC[C@H](Nc3ccc(-n4nccc(OC(F)F)c4=O)cn3)C2)nn1` [Example 281, 4-(Difluoromethoxy)-2-(6-(((1S,3S)-3-((6-methyl-1,2,4-triazin-3-yl)amino)cyclopentyl)amino)pyridin-3-yl)pyridazin-3(2H)-one], the IC50 was more than 40100 nM in assay [1], more than 10000 nM in assay [2] and 2.5 nM against PCSK9 [3]. The EC50 at PCSK9 [4] was 300 nM.

On to `Cc1cnc(N[C@H]2CC[C@H](Nc3ccc(-n4cccc(C#N)c4=O)cn3)C2)nn1` [Example 136, 6′-(((1S,3S)-3-((6-Methyl-1,2,4-triazin-3-yl)amino)cyclopentyl)amino)-2-oxo-2H-[1,3′-bipyridine]-3-carbonitrile], for which the IC50 was more than 40100 nM in assay [1], more than 10000 nM in assay [2] and 3 nM at PCSK9 [3]. The EC50 at PCSK9 [4] stood at 200 nM.

Regarding `Cc1cnc(N[C@H]2CC[C@H](Nc3ccc(-n4cc(-c5cnn(C)c5)ccc4=O)cn3)C2)nn1` [Example 201, 6′-(((1S,3S)-3-((6-Methyl-1,2,4-triazin-3-yl)amino)cyclopentyl)amino)-5-(1-methyl-1H-pyrazol-4-yl)-2H-[1,3′-bipyridin]-2-one], the 50% inhibitory concentration (IC50) in assay [1] was more than 40100 nM; in assay [2], 2380 nM; at PCSK9 [3], 8.6 nM. The EC50 on PCSK9 [4] was determined as 200 nM.

Turning to `O=c1ccc(-c2nnn[nH]2)cn1-c1ccc(N[C@H]2CC[C@H](Nc3ncc(C4CC4)nn3)C2)nc1` [Example 124, 6′-(((1S,3S)-3-((6-Cyclopropyl-1,2,4-triazin-3-yl)amino)cyclopentyl)amino)-5-(1H-tetrazol-5-yl)-2H-[1,3′-bipyridin]-2-one], the IC50 in assay [1] was more than 40100 nM; in assay [2] it was 1070 nM; against PCSK9 [3] it was 1 nM. In addition, the EC50 on PCSK9 [4] came out at 100 nM.

Regarding `O=c1ccc(-c2c[nH]nn2)cn1-c1ccc(N[C@H]2CC[C@H](Nc3ncc(C4CC4)nn3)C2)nc1` [Example 122, 6′-(((1S,3S)-3-((6-Cyclopropyl-1,2,4-triazin-3-yl)amino)cyclopentyl)amino)-5-(1H-1,2,3-triazol-4-yl)-2H-[1,3′-bipyridin]-2-one], the IC50 in assay [1] was more than 40100 nM; in assay [2], 6170 nM; on PCSK9 [3] it was 1.4 nM. The EC50 at PCSK9 [4] was determined as 100 nM.

As to `Cc1cnc(N[C@H]2CC[C@H](Nc3ccc(-n4cccc(C)c4=O)cn3)C2)nn1` (racemic) [Example 173, rel-3-Methyl-6′-(((1 R,3R)-3-((6-methyl-1,2,4-triazin-3-yl)amino)cyclopentyl)amino)-2H-[1,3′-bipyridin]-2-one], the IC50 in assay [1] is more than 40100 nM; in assay [2], 1950 nM; on PCSK9 [3], 4.2 nM. Also, on PCSK9 [4], the EC50 was found to be 100 nM.

In general, IC50 refers to the concentration at which inhibition is half-maximal.
